{"source": "patent US20240207355A1", "about": "“PHARMACEUTICAL COMPOSITION FOR ENHANCING ANTICANCER EFFECT OF ANTICANCER DRUG” (L-BASE CO., LTD., priority 2021, published 2024)", "key": {"[1]": {"tested_on": "breast cancer cell line HCC1937", "test": "MTT assay, cell viability inhibition in breast cancer cell line HCC1937", "format": "cell-based", "description": "After 24 hours, the cell viability inhibitory effect was compared.\nAfter 48 hours, the cell viability inhibitory effect was compared.\nAfter 72 hours, the cell viability inhibitory effect was compared."}, "H1975/OR": {"tested_on": "H1975/OR", "test": "MTT assay, cell viability inhibition in lung cancer cell line H1975/OR", "details": "for cell viability decrease compared to the control group: human, 5 μM", "description": "(§1) Specifically, cells were seeded at 2×10^3/100 μl per well on a 96-well plate, and after culturing for 24 hours, the compound according to the present invention was administered; 4 hours later, anticancer drugs were treated to each cancer cell. The treatment concentration and treatment time of the compound and anticancer drug are specifically described in the embodiment. After completing the treatment of the compound and anticancer drug, CellTiter-96® reagent (Promega Co., USA) was reacted at 5% CO2, 37° C. after adding 10 μl per well. After 3 hours, absorbance was measured at 490 nm using a spectrophotometer (SPECTROstar^Nano, BMG).\nAdditionally, H1975/OR was treated with 3-PhPh-[…] at a concentration of 5 μM, and after 4 hours, the chemotherapeutic agent Alimta was administered either alone or in combination at a concentration of 0.1 μM, and after 72 hours, the effects of inhibiting cell viability were compared.\nSubsequently, H1975/OR was treated with 3-PhPh-[…] at a concentration of 5 μM, and after 4 hours, the targeted anticancer drug Osimertinib was administered either alone or in combination at a concentration of 2.5 μM, and after 68 hours, the effects of inhibiting cell viability were compared."}, "[2]": {"tested_on": "lung cancer cell line H1975", "test": "MTT assay, cell viability inhibition in lung cancer cell line H1975", "details": "for cytotoxicity at 0.5 µM: Osimertinib 0.5 μM alone; for cell viability decrease compared to the control group: human", "description": "as §1\nH1975 was treated with 3-PhPh-[…] at a concentration of 25 μM and after 4 hours, Osimertinib was administered at a concentration of 1.25 μM, either alone or in combination, and the cell viability inhibitory effects were compared 68 hours later.\nSubsequently, H1975 was treated with 4-PhPh-[…] at a concentration of 2 μM, and at the same time, Osimertinib was administered at a concentration of 1 μM, either alone or in combination, and the cell viability inhibitory effects were compared 48 hours later.\nNext. H1975 was treated with Ac-[…] at a concentration of 10 μM, and at the same time, Osimertinib was administered at a concentration of 0.5 μM, either alone or in combination, and the cell viability inhibitory effects were compared 48 hours later.\nFurthermore, H1975 was treated with 4-MeOPh-[…] at a concentration of 10 μM and simultaneously, a targeted anticancer drug, Osimertinib, was administered either alone or in combination at a concentration of 0.5 μM, and after 48 hours, the effects of inhibiting cell viability were compared.\nSimilarly, the lung cancer cell line H1975 was treated with 4-PhPh-[…] at a concentration of 2 μM according to the MTT assay method described in the “Experimental Materials and Methods”. At the same time, Alimta, a chemotherapeutic agent, was administered either alone or in combination at a concentration of 0.2 μM, and after 48 hours, the effects of inhibiting cell viability were compared.\nThe anticancer effect of the triple co-administration was compared with the 3-PhPh-[…] single treatment group, and the Osimertinib and Alimta co-treatment group."}, "[3]": {"tested_on": "lung cancer cell line H820", "test": "MTT assay, cell viability inhibition in lung cancer cell line H820", "format": "cell-based", "method": "First, [sequence] was administered at a concentration of 10 μM to H820, and then, the targeted anticancer drug Osimertinib was administered either alone or in combination at a concentration of 5 μM, and the cell viability inhibitory effect was compared 48 hours later."}, "H1975 cell line": {"tested_on": "H1975 cell line", "details": "H1975 Balb/C nude mice", "method": "H1975 cells were mixed with matrigel in a 1:1 ratio at a concentration of 5×10^6 cells/mouse, and each was subcutaneously inoculated at 200 μl into the flank of the mouse once. After the inoculation, it was confirmed that the volume of the formed tumor reached 70˜130 mm^3, and then random grouping was carried out. After the grouping, Osimertinib was administered orally every day, and after the growth of the tumor was inhibited, the point of re-growth was identified and the co-administration with the test substance was started. The test substances were administered intravenously 7 times at 2-day intervals.\nAfter inoculating the H1975 cell line in 4-week-old female Balb/C nude mice, the presence and growth of the tumor were observed and the short and long axes of the tumor were measured to calculate the volume. When the volume of the tumor reached 70-120 mm^3, the groups were randomly separated and PBS, the negative control group, and Osimertinib at 5 mpk were orally administered daily.\nThe first day of administration was set as day 1, and the volume of the tumor was measured twice a week.\nAccordingly, the individuals who orally administered 5 mpk Osimertinib every day for 28 days were further divided into two groups and observed until the 32nd day of administration."}, "[4]": {"tested_on": "non-small cell lung cancer cell line PC9/OR", "test": "MTT assay, cell viability inhibition in non-small cell lung cancer cell line PC9/OR", "format": "cell-based", "details": "68 h"}, "p-Beclin1S15": {"tested_on": "p-Beclin1S15", "test": "Immunohistochemical staining of p-Beclin1S15 in H820 tumor tissue", "format": "in vivo", "details": "H820 nude mice tumor; 3-PhPh-AQTGTGKT 10 mpk alone, 7 times at 2-day intervals; IHC; FIG. 7", "description": "Tissue embedded in paraffin was cut to a thickness of 4 μm and affixed to a slide, then thoroughly dried and the IHC experiment procedure was performed. Each slide was deparaffinized, and endogenous enzymes were removed using citrate buffer (pH 6.0). Then, p-Beclin1S15 antibody was diluted to 1:100 and treated for 15 hours at 4° C. After washing 4 times with TBST wash buffer, rabbit HRP was treated for secondary antibody reaction and reacted at room temperature for 30 minutes. After the substrate for the antibody reaction was added, when the color appeared, the slide was washed and sealed, and after slide scanning, the result was read.\nNude mice transplanted with H820 lung cancer cell line, an animal model of lung cancer described in the “Experimental Materials and Methods,” was treated 7 times at 2-day intervals for 14 days with 3-PhPh-[…] at a dose of 10 mpk. Osimertinib was orally administered daily at 2.5 mpk, followed by tumor sampling and p-Beclin1S15 immunostaining."}, "[5]": {"tested_on": "H820 lung cancer cell line", "test": "Heterotransplant lung cancer animal model (H820), tumor growth", "format": "in vivo", "details": "H820 nude mice; 3-PhPh-AQTGTGKT 10 mpk alone, 7 times at a two-day interval for 14 days; FIG. 6A", "description": "The test substances were administered intravenously and orally 7 times at 2-day intervals.\nNude mice transplanted with H820 lung cancer cell line, an animal model of lung cancer described in the “Experimental Materials and Methods,” was treated 7 times at a two-day interval for 14 days with 3-PhPh-[…] at a dose of 10 mpk, and Osimertinib was orally administered daily at 2.5 mpk. Then, the growth of the tumor was compared."}}, "note": "Like-named read-outs stand apart in the source and are kept apart here. Ends that are not written are not given here. Peptide text beside a SMILES is read from it. * marks the point of attachment. Benzoyl(3-Ph) = O=C(c1cccc(-c2ccccc2)c1)*; Benzoyl(4-OMe) = COc1ccc(C(=O)*)cc1"}
{"compound": "O=C(c1cc(Cc2n[nH]c(=O)c3ccccc23)ccc1F)N1CCN(C(=O)C2CC2)CC1", "note": "[Olaparib, reference compound]", "values": [{"measurement": "cytotoxicity at 2.5 µM", "setting": "[1]; Homo sapiens, HCC1937, 24 h, read-out: decrease in cell viability compared to the control group", "value": "~1.2", "unit": "%"}]}
{"compound": "Nc1nc2[nH]cc(CCc3ccc(C(=O)N[C@@H](CCC(=O)O)C(=O)O)cc3)c2c(=O)[nH]1", "note": "[Alimta, Pemetrexed, reference compound]", "values": [{"measurement": "cytotoxicity at 0.1 µM", "setting": "H1975/OR; Homo sapiens, NCI-H1975, 72 h, read-out: cell viability decrease compared to the control group", "value": "~8.3", "unit": "%"}, {"measurement": "cytotoxicity at 0.2 µM", "setting": "[2]; Homo sapiens, NCI-H1975, 48 h, read-out: cell viability decrease compared to the control group, H1975, Alimta 0.2 μM alone, 48 hours, FIG. 1E", "value": "~6", "unit": "%"}]}
{"compound": "AQTGTGKT [alanine-glutamine-threonine-glycine-threonine-glycine-lysine-threonine]", "values": [{"measurement": "cell viability decrease compared to the control group", "setting": "[3]; H820, AQTGTGKT 10 μM alone, 48 hours, FIG. 2A", "value": "about 15%"}, {"measurement": "decrease in cell viability compared to the control group", "setting": "[1]; HCC1937, AQTGTGKT 5 μM alone, 24 hours, FIG. 4A", "value": "no decrease in cell viability"}]}
{"compound": "C=CC(=O)Nc1cc(Nc2nccc(-c3cn(C)c4ccccc34)n2)c(OC)cc1N(C)CCN(C)C", "note": "[Osimertinib]", "values": [{"measurement": "cytotoxicity at 2.5 µM", "setting": "H1975/OR; Homo sapiens, NCI-H1975, 68 h, read-out: cell viability decrease compared to the control group", "value": "~7", "unit": "%"}, {"measurement": "cytotoxicity at 0.5 µM", "setting": "[2]; Homo sapiens, NCI-H1975, 48 h, read-out: cell viability decrease compared to the control group, H1975, 48 hours, FIG. 1C", "value": "~12", "unit": "%"}, {"measurement": "cytotoxicity at 0.5 µM", "setting": "[2]; Homo sapiens, NCI-H1975, 48 h, read-out: cell viability decrease compared to the control group, H1975, 48 hours, FIG. 1D", "value": "~21", "unit": "%"}, {"measurement": "cytotoxicity at 1 µM", "setting": "[2]; Homo sapiens, NCI-H1975, 48 h, read-out: cell viability decrease compared to the control group, H1975, Osimertinib 1 μM alone, 48 hours, FIG. 1B", "value": "~5", "unit": "%"}, {"measurement": "cytotoxicity at 1.25 µM", "setting": "[2]; Homo sapiens, NCI-H1975, 68 h, read-out: cell viability decrease compared to the control group, H1975, Osimertinib 1.25 μM alone, 68 hours, FIG. 1A", "value": "~19", "unit": "%"}, {"measurement": "cytotoxicity at 5 µM", "setting": "[3]; NCI-H820, 48 h, read-out: cell viability decrease compared to the control group", "value": "~28", "unit": "%"}, {"measurement": "cytotoxicity at 6 µM", "setting": "[3]; NCI-H820, 72 h, read-out: cell viability decrease compared to the control group", "value": "~15", "unit": "%"}, {"measurement": "growth of the tumor compared to the PBS group", "setting": "H1975 cell line; Osimertinib 5 mpk orally daily, before resistance, P<0.001", "value": "significantly suppressed"}, {"measurement": "weight loss or death of animals during the experiment", "setting": "H1975 cell line; all groups", "value": "No weight loss or death"}, {"measurement": "cytotoxicity at 4 µM", "setting": "[4]; PC9-OR, read-out: cell viability decrease compared to the control group", "value": "~10", "unit": "%"}]}
{"compound": "C[C@H](NC(=O)c1cccc(-c2ccccc2)c1)C(=O)N[C@@H](CCC(N)=O)C(=O)N[C@H](C(=O)NCC(=O)N[C@H](C(=O)NCC(=O)N[C@@H](CCCCN)C(=O)N[C@H](C(=O)O)[C@@H](C)O)[C@@H](C)O)[C@@H](C)O", "note": "({Benzoyl(3-Ph)}-AQTGTGKT-OH)", "values": [{"measurement": "cell viability decrease compared to the control group", "setting": "H1975/OR; 68 h", "value": "about 17%"}, {"measurement": "cell viability decrease compared to the control group", "setting": "H1975/OR; 72 h", "value": "about 6.5%"}, {"measurement": "cell viability decrease compared to the control group", "setting": "[2]; 68 h, 25 μM", "value": "about 10%"}, {"measurement": "expression of p-Beclin1S15 compared to the group receiving Osimertinib alone", "setting": "p-Beclin1S15", "value": "reduced"}, {"measurement": "cell viability decrease compared to the control group", "setting": "[3]; human, 72 h, 40 μM", "value": "about 8%"}, {"measurement": "decrease in cell viability compared to the control group", "setting": "[1]; human, 72 h, 10 μM", "value": "about 3%"}, {"measurement": "tumor viability reduction compared to the control group (PBS administered group)", "setting": "[5]", "value": "about 38%"}, {"measurement": "cell viability decrease compared to the control group", "setting": "[4]; human, 25 μM", "value": "approximately 0.2%"}]}
{"compound": "COc1ccc(C(=O)N[C@@H](C)C(=O)N[C@@H](CCC(N)=O)C(=O)N[C@H](C(=O)NCC(=O)N[C@H](C(=O)NCC(=O)N[C@@H](CCCCN)C(=O)N[C@H](C(=O)O)[C@@H](C)O)[C@@H](C)O)[C@@H](C)O)cc1", "note": "({Benzoyl(4-OMe)}-AQTGTGKT-OH)", "values": [{"measurement": "cell viability decrease compared to the control group", "setting": "[2]; 48 h, 10 μM", "value": "about 6%"}, {"measurement": "decrease in cell viability compared to the control group", "setting": "[1]; human, 48 h, 5 μM", "value": "about 4.6%"}]}
